Results reported in BindingDB's records for doi:10.7270/Q2D50KC1 (The Scripps Research Institute Molecular Screening Center, 2007).

Target: Sphingosine 1-phosphate receptor 3 (Homo sapiens, UniProt Q99500)
Test: S1P3 receptor NFAT-BLA reporter inhibition, dose response, counter-screen for 5HT1E antagonist project, CHO cells, Ga15, NFAT beta-lactamase, FRET (AID 776)

Sequence of Sphingosine 1-phosphate receptor 3 (Q99500 whole entry): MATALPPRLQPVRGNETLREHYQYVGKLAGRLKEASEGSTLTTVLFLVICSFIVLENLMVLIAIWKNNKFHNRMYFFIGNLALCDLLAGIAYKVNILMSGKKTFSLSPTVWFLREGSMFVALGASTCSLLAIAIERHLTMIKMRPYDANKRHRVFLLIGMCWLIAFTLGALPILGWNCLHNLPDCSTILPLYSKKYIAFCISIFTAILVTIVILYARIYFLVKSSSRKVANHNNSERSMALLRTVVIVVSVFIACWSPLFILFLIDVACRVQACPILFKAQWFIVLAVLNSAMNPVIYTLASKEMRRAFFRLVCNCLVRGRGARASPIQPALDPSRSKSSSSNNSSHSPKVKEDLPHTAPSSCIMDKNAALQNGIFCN

IC50 | SMILES
1.68 µM | CCN(CC)c1ccc2c(Cl)c(Br)c(=O)oc2c1
> 12.4 µM | CCC(NC(=O)Nc1nnc(C(F)(F)F)s1)(C(F)(F)F)C(F)(F)F
> 50 µM | CC(C)=CCC(C)(C)CNC(=O)NC1CCCCC1
> 50 µM | O=C(Nc1ccc(-c2nc3ncccc3o2)cc1)c1ccc(Br)o1
2.33 µM | O=S1(=O)C=C(Sc2nnc(-c3ccccc3)o2)c2ccccc21
> 39 µM | CCCOCCOC(=O)c1[nH]c2c(c1C)C(=O)CC(c1cc(OC)ccc1OC)C2 (stereo not drawn)
2.04 µM | Cn1c(-c2c(N)n(C3CCCC3)c3nc4ccccc4nc23)nc2ccccc21 [1-cyclopentyl-3-(1-methyl-2-benzimidazolyl)-2-pyrrolo[3,2-b]quinoxalinamine]
> 17.7 µM | COc1cc2c(cc1OC)-c1cc(N3CCCc4ccccc43)nc(=O)n1CC2 [2-(3,4-dihydro-2H-quinolin-1-yl)-9,10-dimethoxy-6,7-dihydropyrimido[6,1-a]isoquinolin-4-one]
4.32 µM | COc1ccc(-n2nnnc2S(=O)(=O)CC(=O)N2CCCCC2)cc1 [2-[1-(4-methoxyphenyl)tetrazol-5-yl]sulfonyl-1-piperidin-1-ylethanone]
3.33 µM | N#CCCS(=O)(=O)c1nnnn1-c1ccccc1 [3-(1-phenyltetrazol-5-yl)sulfonylpropanenitrile]
5.18 µM | COc1ccc(-c2cc(C(F)(F)F)nc(S(C)(=O)=O)n2)cc1OC [4-(3,4-dimethoxyphenyl)-2-methylsulfonyl-6-(trifluoromethyl)pyrimidine]
4.3 µM | COc1cccc(N2CCN(c3ncnc4c3[nH]c3ccccc34)CC2C)c1 (stereo not drawn) [4-[4-(3-methoxyphenyl)-3-methyl-1-piperazinyl]-5H-pyrimido[5,4-b]indole]
> 39 µM | Cc1ccc(S(=O)(=O)Nc2cccc3ncccc23)s1 [5-methyl-N-quinolin-5-ylthiophene-2-sulfonamide]
> 12.4 µM | CCOc1ccc(C2=Nn3c(nnc3-c3ccccc3OC)SC2)cc1 [6-(4-ethoxyphenyl)-3-(2-methoxyphenyl)-7H-[1,2,4]triazolo[3,4-b][1,3,4]thiadiazine]
5.78 µM | Cc1ccc(-n2nc3c([n+]2[O-])CCc2c-3n[o+]n2[O-])cc1 [7-(4-methylphenyl)-3,6-dioxido-4,5-dihydrotriazolo[4,5-e][2,1,3]benzoxadiazole-3,6-diium]
0.934 µM | COc1cccc(N2CCN(c3ncnc4c3[nH]c3ccc(F)cc34)CC2C)c1 (stereo not drawn) [8-fluoranyl-4-[4-(3-methoxyphenyl)-3-methyl-piperazin-1-yl]-5H-pyrimido[5,4-b]indole]
> 50 µM | COc1ccccc1-c1nnc2n1N=C(c1ccc(O)c(O)c1)CS2 [(4E)-4-[3-(2-methoxyphenyl)-5H-[1,2,4]triazolo[3,4-b][1,3,4]thiadiazin-6-ylidene]-2-oxidanyl-cyclohexa-2,5-dien-1-one]
> 50 µM | COC(=O)Nc1nc2ccc(Sc3ccccc3)cc2[nH]1 [FENBENDAZOLE]
> 12.4 µM | CCn1c(=O)c(C(=O)Nc2nc3ccccc3[nH]2)c(O)c2ccccc21 [MLS000027148]

IC50 | SMILES
3.51 µM | CS(=O)(=O)c1nc(-c2ccccc2)cc(C(F)(F)F)n1 [MLS000044644]
3.45 µM | CS(=O)(=O)c1nc(-c2cccs2)cc(C(F)(F)F)n1 [MLS000044645]
4.88 µM | CS(=O)(=O)c1nc(-c2ccco2)cc(C(F)(F)F)n1 [MLS000044646]
4.69 µM | N#C/C(=C/c1ccc(N2CCCCCC2)o1)c1ccc(F)cc1 [MLS000051438]
> 17.7 µM | CCOc1cccc(-c2nnc3n2N=C(c2cc(OC)ccc2OC)CS3)c1 [MLS000081451]
> 50 µM | COc1ccc(-n2c(O)cc(NCc3ccncc3)c2O)cc1 [MLS000099014]
7.56 µM | CC(=O)Oc1ccc(-n2c(O)c3c(c2O)C2(C)C=CC3(C)O2)cc1 [MLS000107813]
> 12.4 µM | O=C(Nc1ccc(N2CCOCC2)cc1)Nc1ccc2nc(-c3ccco3)c(-c3ccco3)nc2c1 [N-(2,3-di-2-furyl-6-quinoxalinyl)-N'-[4-(4-morpholinyl)phenyl]urea]
5.06 µM | COc1cccc(N2CCN(c3ncnc4c3cnn4-c3ccc(C)cc3C)CC2)c1 [SMR000017007]
> 50 µM | COCCOC(=O)c1[nH]c2c(c1C)C(=O)CC(c1ccccc1)C2 (stereo not drawn) [SMR000025505]
> 50 µM | CCCc1nnc2n1N=C(c1ccc(OC)c(OC)c1)CS2 [SMR000057783]
> 50 µM | CCCOc1ccc2nc(NC(=O)OC)[nH]c2c1 [SMR000058208]
> 50 µM | Cc1ccc(N(CC2=NCCN2)c2cccc(O)c2)cc1 [SMR000059054]
7.55 µM | Clc1ccc(-n2nnnc2Sc2ncnc3sccc23)cc1 [SMR000066808]
> 39 µM | COc1cc(NS(=O)(=O)c2ccc(C)cc2)c2ncccc2c1 [SMR000071147]
> 50 µM | COc1cc2c(cc1OC)C1=C(C#N)CC=C(NS(=O)(=O)c3ccccc3)N1CC2 [SMR000092093]
> 50 µM | COc1ccc(C2N(c3ccc(F)cc3)C(=O)C3CCCN32)cc1 (stereo not drawn) [SMR000094164]
4.33 µM | CSc1ccccc1NC=C1C(=O)CC(C)(C)CC1=O [SMR000111352]
1.42 µM | COC(=O)/C(=C1/Oc2cc(C)oc(=O)c2S1)C(F)(F)F [methyl (2E)-3,3,3-tris(fluoranyl)-2-(6-methyl-4-oxidanylidene-[1,3]oxathiolo[4,5-c]pyran-2-ylidene)propanoate]

SMILES | IC50
OCC12C=CC(O1)c1c2c(O)n(-c2ccc(-c3ccccc3)cc2)c1O (stereo not drawn) | > 12.4 µM
CCn1nc(-c2ccccc2)nc2c(=O)n(C)c(=O)nc1-2 [1-Ethyl-6-methyl-3-phenyl-1H-pyrimido[5,4-e][1,2,4]triazine-5,7-dione] | 1.08 µM
CCn1nc(-c2cccs2)nc2c(=O)n(C)c(=O)nc1-2 [1-ethyl-6-methyl-3-thiophen-2-yl-pyrimido[5,4-e][1,2,4]triazine-5,7-dione] | 0.815 µM
CC(=O)Nc1cc(OC(C)=O)c2nonc2c1OC(C)=O [Acetic acid 7-acetoxy-5-acetylamino-benzo[1,2,5]oxadiazol-4-yl ester] | 1.82 µM
CN(C)c1nc(OCCNC(=O)COc2ccc(Cl)cc2Cl)nc(N2CCCCC2)n1 [SMR000072558] | > 50 µM
